Results as given in US9833497B2, “Human originated EGF domain proteins and use of the same” (CHENGDU SOURCEBIO LIMITED-LIABILITY COMPANY, priority 2013, dated 2017).

How the values were obtained:
Type in all cases: cell-based
[1] = tested on: Aeromonas hydrophila; test: MIC against Gram-negative bacteria: Aeromonas hydrophila
Summary of the method: (§1)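 Bacteria grown in LB at 37° C with shaking to McFarland 0.5, pelleted and resuspended in fresh LB, then seeded at 5×10^5 CFU/mL per well. Purified recombinant human EGF domain proteins were two-fold serially diluted in triplicate and plates shaken at 37° C, 175 rpm. MIC is the lowest protein concentration with no bacterial growth.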

[2] = tested on: Moraxella catarrhalis; test: MIC against Gram-negative bacteria: Moraxella catarrhalis
Summary of the method: as §1

[3] = tested on: Serratia marcescens; test: MIC against Gram-negative bacteria: Serratia marcescens
Summary of the method: as §1

[4] = tested on: Proteus vulgaris; test: MIC against Gram-negative bacteria: Proteus vulgaris
Summary of the method: as §1

[5] = tested on: Pseudomonas aeruginosa; test: MIC against Gram-negative bacteria: Pseudomonas aeruginosa
Summary of the method: as §1

[6] = tested on: E. coli DH5α; test: Antibacterial activity: MIC and growth curve against E. coli DH5α in 96-well plate; conditions: minimal inhibitory concentration against E. coli DH5α; 96-well plate, 5×10^5 CFU/mL, 37° C., judged after 8 h
Summary of the method: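 MIC taken as lowest protein level with no bacterial growth, tracked by A600 every 30 min during 37 °C, 175 rpm culture. Two-fold protein series 50-12.5 μg/mL final, triplicate wells, against 5×10^5 CFU/mL of LB-washed mid-log cells.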

[7] = tested on: Enterobacter cloacae; test: MIC against Gram-negative bacteria: Enterobacter cloacae
Summary of the method: as §1

[8] = tested on: Klebsiella pneumonia; test: MIC against Gram-negative bacteria: Klebsiella pneumonia
Summary of the method: as §1

[9] = tested on: E. coli BL21; test: MIC against Gram-negative bacteria: E. coli BL21
Summary of the method: as §1

[10] = tested on: Citrobacter diversus; test: MIC against Gram-negative bacteria: Citrobacter diversus
Summary of the method: as §1

[11] = tested on: Proteus mirabilis; test: MIC against Gram-negative bacteria: Proteus mirabilis
Summary of the method: as §1

[12] = 96-well plate, 5×10^5 CFU/mL, 37° C., 10 h
[13] = 10 h cultivation at 37° C., 5×10^5 CFU/mL, two-fold serial dilution

PRT1028 (DENECATGFHRCGPNSVCINLPGSYRCECRSGYEFADDRHTCI; listed as Homo sapiens)
MIC ([1]; A. hydrophila, 10 h cultivation at 37° C.): 25 µg/mL
MIC ([2]; M. catarrhalis, 10 h cultivation at 37° C.): 25 µg/mL
MIC ([3]; S. marcescens, 10 h cultivation at 37° C.): 50 µg/mL
MIC ([4]; P. vulgaris, 10 h cultivation at 37° C.): 25 µg/mL
MIC ([5]; P. aeruginosa, 10 h cultivation at 37° C.): 25 µg/mL
MIC [6]: 12.5 µg/mL
MIC ([7]; E. cloacae, 10 h cultivation at 37° C.): 25 µg/mL
MIC ([8]; K. pneumonia, 10 h cultivation at 37° C.): 50 µg/mL
MIC ([9]; E. coli BL21, 10 h cultivation at 37° C.): 50 µg/mL
MIC ([10]; C. diversus, 10 h cultivation at 37° C.): 12.5 µg/mL
MIC ([11]; P. mirabilis, 10 h cultivation at 37° C.): 50 µg/mL

PRT87 (DACLLNPCQNQGSCRHLPGAPHGYTCDCVGGYFGHHCE; listed as Homo sapiens)
MIC (μg/mL) A. hydrophila ([1]; Aeromonas hydrophila, 96-well plate, 5×10^5 CFU/mL, 37° C., 10 h): 25 µg/mL
MIC (μg/mL) M. catarrhalis ([2]; Moraxella catarrhalis, 96-well plate, 5×10^5 CFU/mL, 37° C., 10 h): 25 µg/mL
MIC (μg/mL) S. marcescens ([3]; Serratia marcescens, 96-well plate, 5×10^5 CFU/mL, 37° C., 10 h): 50 µg/mL
MIC (μg/mL) P. vulgaris ([4]; Proteus vulgaris, 96-well plate, 5×10^5 CFU/mL, 37° C., 10 h): 25 µg/mL
MIC (μg/mL) P. aeruginosa ([5]; Pseudomonas aeruginosa, 96-well plate, 5×10^5 CFU/mL, 37° C., 10 h): 12.5 µg/mL
MIC [6]: 12.5 µg/mL
MIC (μg/mL) E. cloacae ([7]; Enterobacter cloacae, 96-well plate, 5×10^5 CFU/mL, 37° C., 10 h): 12.5 µg/mL
MIC (μg/mL) K. pneumonia ([8]; Klebsiella pneumonia, 96-well plate, 5×10^5 CFU/mL, 37° C., 10 h): 50 µg/mL
MIC (μg/mL) E. coli BL21 ([9]; E. coli BL21, 96-well plate, 5×10^5 CFU/mL, 37° C., 10 h): 12.5 µg/mL
MIC (μg/mL) C. diversus ([10]; Citrobacter diversus, 96-well plate, 5×10^5 CFU/mL, 37° C., 10 h): 50 µg/mL
MIC (μg/mL) P. mirabilis ([11]; Proteus mirabilis, 96-well plate, 5×10^5 CFU/mL, 37° C., 10 h): 12.5 µg/mL

PRT520 (CRCNAGGSFSEVCHSQTGQCECRANVQGQRCDKCKAGTFGLQSARGCVP; listed as Homo sapiens)
MIC against A. hydrophila [1, 12]: 12.5 µg/mL
MIC against M. catarrhalis [2, 12]: 50 µg/mL
MIC against S. marcescens [3, 12]: 25 µg/mL
MIC against P. vulgaris [4, 12]: 12.5 µg/mL
MIC against P. aeruginosa [5, 12]: 25 µg/mL
MIC [6]: 25 µg/mL
MIC against E. cloacae [7, 12]: 25 µg/mL
MIC against K. pneumonia [8, 12]: 12.5 µg/mL
MIC against E. coli BL21 [9, 12]: 12.5 µg/mL
MIC against C. diversus [10, 12]: 25 µg/mL
MIC against P. mirabilis [11, 12]: 25 µg/mL

PRT613 (CQCSDNIDPNAVGNCNRLTGECLKCIYNTAGFYCDRCKDGFFGNPLAPNPADKCKA; listed as Homo sapiens)
MIC A. hydrophila [1, 12]: 12.5 µg/mL
MIC M. catarrhalis [2, 12]: 50 µg/mL
MIC S. marcescens [3, 12]: 50 µg/mL
MIC P. vulgaris [4, 12]: 12.5 µg/mL
MIC P. aeruginosa [5, 12]: 25 µg/mL
MIC [6]: 50 µg/mL
MIC E. cloacae [7, 12]: 25 µg/mL
MIC K. pneumonia [8, 12]: 50 µg/mL
MIC E. coli BL21 [9, 12]: 12.5 µg/mL
MIC C. diversus [10, 12]: 25 µg/mL
MIC P. mirabilis [11, 12]: 25 µg/mL

PRT1152 (HASPCSLMKCGNGGTCIESGTSVYCNCTTGWKGSFCT; listed as Homo sapiens)
MIC A. hydrophila [1, 13]: 12.5 µg/mL
MIC M. catarrhalis [2, 13]: 12.5 µg/mL
MIC S. marcescens [3, 13]: 50 µg/mL
MIC P. vulgaris [4, 13]: 25 µg/mL
MIC P. aeruginosa [5, 13]: 12.5 µg/mL
MIC [6]: 12.5 µg/mL
MIC E. cloacae [7, 13]: 12.5 µg/mL
MIC K. pneumonia [8, 13]: 25 µg/mL
MIC E. coli BL21 [9, 13]: 25 µg/mL
MIC C. diversus [10, 13]: 12.5 µg/mL
MIC P. mirabilis [11, 13]: 12.5 µg/mL

PRT769 (CNGVDHGCEFQCVSEGLSYRCLCPEGRQLQADGKSC; listed as Homo sapiens)
MIC (μg/mL) A. hydrophila ([1]; A. hydrophila, 10 h cultivation at 37° C., 5×10^5 CFU/mL): 25 µg/mL
MIC (μg/mL) M. catarrhalis ([2]; M. catarrhalis, 10 h cultivation at 37° C., 5×10^5 CFU/mL): 12.5 µg/mL
MIC (μg/mL) S. marcescens ([3]; S. marcescens, 10 h cultivation at 37° C., 5×10^5 CFU/mL): 12.5 µg/mL
MIC (μg/mL) P. vulgaris ([4]; P. vulgaris, 10 h cultivation at 37° C., 5×10^5 CFU/mL): 25 µg/mL
MIC (μg/mL) P. aeruginosa ([5]; P. aeruginosa, 10 h cultivation at 37° C., 5×10^5 CFU/mL): 12.5 µg/mL
MIC [6]: 12.5 µg/mL
MIC (μg/mL) E. cloacae ([7]; E. cloacae, 10 h cultivation at 37° C., 5×10^5 CFU/mL): 12.5 µg/mL
MIC (μg/mL) K. pneumonia ([8]; K. pneumonia, 10 h cultivation at 37° C., 5×10^5 CFU/mL): 25 µg/mL
MIC (μg/mL) E. coli BL21 ([9]; E. coli BL21, 10 h cultivation at 37° C., 5×10^5 CFU/mL): 12.5 µg/mL
MIC (μg/mL) C. diversus ([10]; C. diversus, 10 h cultivation at 37° C., 5×10^5 CFU/mL): 12.5 µg/mL
MIC (μg/mL) P. mirabilis ([11]; P. mirabilis, 10 h cultivation at 37° C., 5×10^5 CFU/mL): 12.5 µg/mL
